Test results from ChEMBL document CHEMBL1123061, “Potentiation of fasciolicidal agents by benzoyl side chains. Synthesis of benzoylsalicylanilides” (1985).

What follows are compounds tested on Fasciola hepatica (assay: In vivo for fasciolicidal activity against Fasciola hepatica infections in rats following s.c. administration.).

SMILES | Dose [mg/kg]
Cc1cc(C(=O)c2ccc(Cl)cc2)cc(C(=O)Nc2ccc([N+](=O)[O-])cc2Br)c1O | 3.1
Cc1cc(C(=O)c2ccc(C#N)cc2)cc(C(=O)Nc2ccc([N+](=O)[O-])cc2Cl)c1O | 6.3
Cc1c(C(=O)c2ccc(Cl)cc2)cc(C(C)(C)C)c(O)c1C(=O)Nc1ccc([N+](=O)[O-])cc1Cl | 1.6
Cc1cc(C(=O)c2ccc(Cl)cc2)cc(C(=O)Nc2ccc([N+](=O)[O-])cc2C(F)(F)F)c1O | 6.3
Cc1cc(C(=O)c2ccc(Cl)cc2Cl)cc(C(=O)Nc2ccc([N+](=O)[O-])cc2Cl)c1O | 6.3
Cc1cc(Cc2ccccc2)cc(C(=O)Nc2ccc(Cl)cc2Cl)c1O | 100
O=C(Nc1ccc(Oc2ccc(Cl)cc2)c(Cl)c1)c1cc(I)cc(I)c1O [RAFOXANIDE] | 12.5
Cc1cc(C(=O)c2ccc([N+](=O)[O-])cc2)cc(C(=O)Nc2ccc([N+](=O)[O-])cc2Cl)c1O | 6.3
Cc1cc(Oc2ccccc2)cc(C(=O)Nc2ccc(Cl)cc2Cl)c1O | 100
Cc1cc(C(=O)c2ccc(Cl)cc2)cc(C(=O)Nc2cc(Cl)cc(Cl)c2)c1O | 100
Cc1cc(C(=O)c2ccc(Cl)cc2)cc(C(=O)Nc2ccc(Br)cc2C(F)(F)F)c1O | 6.3
Cc1cc(C(=O)c2ccc(Cl)cc2)c(C)c(C(=O)Nc2ccc([N+](=O)[O-])cc2Cl)c1O | 3.1
Cc1cc(C(=O)c2ccc(Br)cc2)cc(C(=O)Nc2ccc(Cl)cc2Cl)c1O | 100
Cc1cc(C(=O)c2ccc(I)cc2)cc(C(=O)Nc2ccc([N+](=O)[O-])cc2Cl)c1O | 12.5
Cc1cc(C(=O)c2ccc(Cl)cc2)cc(C(=O)Nc2ccc(C#N)cc2)c1O | 100
Cc1cc(C(=O)c2ccc(Cl)cc2)cc(C(=O)Nc2ccc([N+](=O)[O-])cc2Cl)c1O | 6.3
O=C(c1ccc(Cl)cc1)c1ccc(O)c(C(=O)Nc2ccc([N+](=O)[O-])cc2Cl)c1 | 25
Cc1cc(C(=O)c2ccc(Br)cc2)cc(C(=O)Nc2ccc([N+](=O)[O-])cc2Cl)c1O | 3.1
Cc1cc(C(=O)c2ccc([N+](=O)[O-])cc2)cc(C(=O)Nc2ccc(Cl)cc2Cl)c1O | 12.5
Cc1cc(C(=O)c2ccc(Cl)c(Cl)c2)cc(C(=O)Nc2ccc([N+](=O)[O-])cc2Cl)c1O | 3.1
Cc1cc(C(=O)c2ccc(Cl)cc2)cc(C(=O)Nc2ccc(Cl)c(Cl)c2)c1O | 100
